Test results from ChEMBL document CHEMBL1150541, “Penem inhibitors of bacterial signal peptidase” (Bioorg Med Chem Lett, 1995).
Where a SMILES comes first, the peptide text is derived from it.

Columns and labels:
[1] = biological target: Signal peptidase I (Escherichia coli K-12) (UniProt P00803); test: Inhibitory activity against Escherichia coli leader peptidase at a concentration of 100 uM
[2] = biological target: Signal peptidase I (Escherichia coli K-12, UniProt P00803); test: Inhibitory activity against Escherichia coli leader peptidase using substrate A; settings: read-out: I50
[3] = tested on: Escherichia coli; settings: 100 uM
[4] = Inhibitory activity against Escherichia coli leader peptidase using substrate B; settings: read-out: I50
[5] = tested on: Escherichia coli; test: Compound was evaluated for Michaelis-Menten constant (Km)
[6] = Inhibitory activity against Escherichia coli leader peptidase using substrate A.; settings: read-out: I50

Chain of Signal peptidase I (Escherichia coli K-12) (P00803 whole entry): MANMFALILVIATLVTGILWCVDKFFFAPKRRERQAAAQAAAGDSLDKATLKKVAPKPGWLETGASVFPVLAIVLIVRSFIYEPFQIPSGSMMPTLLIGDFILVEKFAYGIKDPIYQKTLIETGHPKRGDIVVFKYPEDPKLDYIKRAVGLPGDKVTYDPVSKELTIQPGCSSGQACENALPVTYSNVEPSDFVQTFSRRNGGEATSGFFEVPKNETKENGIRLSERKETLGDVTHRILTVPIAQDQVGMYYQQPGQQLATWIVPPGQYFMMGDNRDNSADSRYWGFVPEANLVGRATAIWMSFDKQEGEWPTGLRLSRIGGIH
Chain of Signal peptidase I (P00803 whole entry): as above

Row | inhibition [1] [%] | IC50 [2] [µM] | also measured | Compound
1 | 0 |  |  | CCCCCCCCCCCCCCCCOC(=O)C1=CSC2CC(=O)N12 (stereo not drawn)
2 |  | 1.8 |  | C=CCOC(=O)C1=CS[C@H]2[C@@H]([C@@H](C)OC(C)=O)C(=O)N12 [listing 1 of 3 here]
3 | 100 | 6 |  | COCOC(=O)C1=CSC2CC(=O)N12 (stereo not drawn)
4 | 19 |  |  | C=CCOC(=O)C1=CS[C@@H]2[C@@H](CC)C(=O)N12
5 |  | 10 | inhibition [3]: 100% | O=C(OCc1ccccc1)C1=CSC2CC(=O)N12 (stereo not drawn)
6 | 31 |  |  | O=C(OCc1ccc(C(=O)O)cc1)C1=CSC2CC(=O)N12 (stereo not drawn)
7 | 72 | 8 |  | COC(=O)c1cccc(COC(=O)C2=CSC3CC(=O)N23)c1 (stereo not drawn)
8 | 100 | 3 |  | O=C(OCc1ccccc1)C1=CS[C@H]2CC(=O)N12
9 | 0 |  |  | C=CCOC(=O)C1=CS[C@H]2[C@@H]([C@H](C)OC(C)=O)C(=O)N12
10 | 0 |  |  | O=C(OCc1ccccc1)C1=CS[C@@H]2CC(=O)N12
11 | 100 | 21 |  | CCCCCOC(=O)C1=CSC2CC(=O)N12 (stereo not drawn)
12 | 93 | 10 |  | C=CCOC(=O)C1=CSC2CC(=O)N12 (stereo not drawn)
13 | 0 |  |  | C=CCOC(=O)C1=CS[C@@H]2[C@@H]([C@H](C)OC(C)=O)C(=O)N12
14 |  | 0.85 | IC50 [4]: 0.07 µM | C=CCOC(=O)C1=CS[C@H]2[C@@H]([C@@H](C)OC(C)=O)C(=O)N12 [listing 2 of 3 here]
15 |  |  | Km [5]: 300 µM | CC[C@H](C)[C@H](NC(=O)[C@H](CCCCN)NC(=O)[C@H](C)NC(=O)[C@H](CC(C)C)NC(=O)[C@H](C)NC(=O)[C@H](CO)NC(=O)[C@H](C)NC(=O)[C@H](CO)NC(=O)[C@@H](N)Cc1c[nH]c2ccccc12)C(N)=O (H-WSASALAKI-NH2)
16 | 100 |  |  | C=CCOC(=O)C1=CS[C@H]2[C@@H]([C@@H](C)OC(C)=O)C(=O)N12 [listing 3 of 3 here]
17 | 93 |  | IC50 [6]: 10 µM | O=C(C1=CSC2CC(=O)N12)N1CCCC1 (stereo not drawn)
18 | 100 | 4 |  | COC(=O)C1=CSC2CC(=O)N12 (stereo not drawn)

Row | inhibition [1] [%] | IC50 [2] [µM] | also measured | Compound
19 | 20 |  |  | C=CCOC(=O)C1=CS[C@@H]2[C@H]([C@H](C)OC(C)=O)C(=O)N12
20 | 83 | 13 |  | O=C(OCCCCc1ccccc1)C1=CSC2CC(=O)N12 (stereo not drawn)
21 | 86 | 58 |  | O=C(Nc1ccccc1)C1=CSC2CC(=O)N12 (stereo not drawn)
22 | 79 | 115 |  | O=C(C1=CSC2CC(=O)N12)N1CCOCC1 (stereo not drawn)
23 | 84 | 20 |  | C=CCOC(=O)C1=CS[C@H]2[C@@H](CC)C(=O)N12
24 | 0 | 600 |  | O=C(O)C1=CSC2CC(=O)N12 (stereo not drawn)
25 | 88 | 50 |  | CN(Cc1ccccc1)C(=O)C1=CSC2CC(=O)N12 (stereo not drawn)
26 | 0 |  |  | CC(C)(C)NC(=O)C1=CSC2CC(=O)N12 (stereo not drawn)
27 | 100 | 0.92 | IC50 [4]: 0.18 µM | C=CCOC(=O)C1=CS[C@H]2[C@@H]([C@@H](C)O)C(=O)N12
28 | 100 | 3 |  | COC(=O)c1ccc(COC(=O)C2=CSC3CC(=O)N23)cc1 (stereo not drawn)
29 | 0 |  |  | COc1ccc(COC(=O)C2=CS[C@@H]3CC(=O)N23)cc1
30 | 85 | 50 |  | O=C(OCc1ccc([N+](=O)[O-])cc1)C1=CSC2CC(=O)N12 (stereo not drawn)
31 | 86 | 58 |  | CCN(CC)C(=O)C1=CSC2CC(=O)N12 (stereo not drawn)
32 | 64 |  |  | C=CCOC(=O)C1=CS[C@@H]2[C@@H]([C@@H](C)OC(C)=O)C(=O)N12
33 | 100 | 7 |  | COc1ccc(COC(=O)C2=CSC3CC(=O)N23)cc1 (stereo not drawn)
34 | 34 |  |  | O=C(NCc1ccccc1)C1=CSC2CC(=O)N12 (stereo not drawn)
35 |  |  | Km [5]: 1000 µM | CC[C@H](C)[C@H](NC(=O)[C@H](CCCCN)NC(=O)[C@H](C)NC(=O)[C@H](CC(C)C)NC(=O)[C@H](C)NC(=O)[C@H](CO)NC(=O)[C@H](C)NC(=O)[C@H](CO)NC(=O)[C@@H](N)Cc1ccccc1)C(N)=O (H-FSASALAKI-NH2)
36 | 77 | 87 |  | COc1ccc(NC(=O)C2=CSC3CC(=O)N23)cc1 (stereo not drawn)
